The subject of one experiment is A. stephensi. Kind of experiment: Membrane feeding assay, A. stephensi. In kind it is in vivo, Anopheles stephensi. As to conditions: for effect on feeding on solution containing ATP, in words: doses as in Table 8. The protocol: Experiments with A. gambiae and A. stephensi were made in a climate chamber at 28° C. and 80% RH during the last 6 hours of scotophase. As a sugar meal can interfere with the blood meal by reducing the number of females that feed, the sucrose solution supplied in rearing cages to mosquitoes employed for feeding experiments was reduced to 5%. […] The 5% sucrose solution was presented to mosquitoes from emergence on four 1 cm diam. cotton dental rolls (Hartmann A G, Neuhausen, Switzerland) inserted in 10 ml upturned glass vials placed in holes at each corner of the rearing cage ceiling. Cotton rolls were turned daily in vials and renewed every two days. Mosquitoes were not fed blood and were deprived of sucrose 17 to 20 hours before experiments. Thirty min before a feeding experiment, between 10-25, 6-day-old females that responded to activation by human breath were removed with a mouth aspirator from the rearing cage wall and placed in polystyrol cylinders with the floor cut out (10 cm dm×15 cm high; Semadeni, Ostermundigen, Switzerland) that served as feeding cages. Each cage was covered with mosquito netting at one end and a soft polyurethane lid at the other.
Mosquitoes were fed for 30 min using a feeding system (Hemotek®, Hemotek Ltd, Blackburn, UK) consisting of 3.5 ml stainless steel reservoirs 37 mm in diameter covered with a 60-90 μm thick silicone-impregnated membrane (Kröber and Guerin, 2007 in “Feeding assays for hard ticks”, Trends in parasitology 23, 445-449; doi 10.1016/j.pt.2007.07.010). Feeding reservoirs reached a temperature of 37° C. within 10 min and were placed on the netting of feeding cages. Mosquitoes were activated using a 200 ms pulse of pure CO2 (volume 6.25 ml) from a pressurised cylinder (Carbagas, Switzerland) using a solenoid valve that caused the CO2 level in the feeding cage to rise to at least 1,500 ppm. Between 3 and 4 sets of 10 feeding cages held in a custom-built Ertacetal® POM frame were tested per day, depending of the number of female mosquitoes available from the colony.
All compounds were tested in a mosquito feeding solution (FS) consisting of 25 mM dextrose, 25 mM NaCl buffered with 8.93 mM NaHCO3 adjusted to pH 7.4. Feeding responses of A. gambiae and A. stephensi to ATP as a function of dose were tested with between 7 to 10 feeding cages per dose. Each feeding experiment with an antagonist systematically included a treatment containing the FS as negative control along with a treatment containing the FS […] These positive and negative controls permitted to monitor any effect of experimental day on feeding responses as a function of dose for antagonists that were recorded over several days. […] Four to 10 cages each with 10 to 29 mosquitoes were tested per antagonist dose. […] The number of feeding cages used to test other compounds and their mixtures as feeding stimulants or as feeding inhibitors is listed on Table 6. The percentage of fed mosquitoes was estimated by visual inspection of abdominal distention that is indicative of engorgement.
Pairwise comparisons of A. gambiae electrophysiological (EP) responses to ATP and adenosine alone and combined with a given dose of PR antagonist, EP responses to ATP alone and combined with a given dose of a metal modulator, and EP responses to ATP prior to and after exposure of a sensillum to a given dose of a PR antagonist were made with a one-tailed Wilcoxon signed-rank test for data showing a non-normal distribution, with a paired Student's t-test for normally distributed data showing homogeneous variance and with a Welch's t-test for normally distributed data showing non-homogeneous variance. […]

Experiment [1] concerns Vertebrate P2X3 and P2X2/3 PRs. Conditions: cited from earlier work.
The subject of another experiment is Ixodes ricinus. In words: Glass capillary feeding of partly fed female ticks, Ixodes ricinus. In kind it is in vivo. Conditions: for Fluid intake, Median (mg): females, glass capillary. From the text:
(§1) I. ricinus adults were prefed for 3-4 days and A. hebraeum adults for 10 days on a membrane over bovine blood (Kröber T. and Guerin P. M., 2007, supra). Partly fed I. ricinus and A. hebraeum, freshly detached from the membrane, were tightly fixed by the scutum and alloscutum to double-sided adhesive tape (Tesafix® 4964, Beiersdorf, Hamburg, Germany) on a glass slide and secured with plasticine. Test compounds were fed to these partly-fed female ticks using borosilicate capillary tubes (Clark GC120-10, 0.69 mm i.d., 1.2 mm o.d., 50 mm long; Clark Electromedical Instruments, Pangbourne, Reading, UK) with drawn out tips adapted to fit around the mouthparts of individual ticks. Feeding capillaries were filled with a solution of 100 mM NaCl, 8.9 mM NaHCO3 with 1000 μM ATP added, hereafter termed tick feeding solution (TFS) that served as positive control in each feeding experiment. PR antagonists were added to the TFS and pH of the solution was adjusted to 7.2-7.8. Capillary-fed ticks were kept in a plastic box on a warm plate at 34° C. and 80% RH using wet paper. After 1 h, the amount of solution imbibed by a tick was indicated by the drop of the meniscus in the capillary and measured using Vernier callipers and converted to mg.
Uptake of TFS containing PR antagonists, converted to mg/h for hard ticks and weight gains in mg/25 min for soft ticks, was compared to TFS uptake in the corresponding positive controls. […] For tsetse and horn flies the percentage flies that fed per antagonist treatment served as the criterion for inhibition of feeding. As horn fly sexes emerged within 24 h, both sexes were assumed to show the same degree of appetence. In tsetse, males emerged first so a gender-related appetence could not be excluded. No sex-related feeding differences in feeding were found for testse (GLM, P>0.05) so data for the sexes were pooled. Comparisons of percentage fed flies were made using a Bayesian GLM—the most appropriate model considering the zero-inflated distributions shown by the data sets. […]

The subject of another experiment is Amblyomma hebraeum. In words: Glass capillary feeding of partly fed female ticks, Amblyomma hebraeum. The format is in vivo. As to conditions: females.
Text: as §1, with “mg. […]” for “mg.”

Structures are written as SMILES. A value given as a limit tells only on which side of the number the result lay.

On to `Nc1ncnc2c1ncn2[C@@H]1O[C@H](COP(=O)(O)OP(=O)(O)OP(=O)(O)O)[C@@H](O)[C@H]1O` [ATP, Adenosine 5′-triphosphate], for which, in the experiment on A. stephensi (ATP 160 μM, positive control), the “% Fed females (mean ± s.e.m.)” value is reported as 72.96 ± 5.9%. Besides, the “ED95, feeding stimulant” value in the experiment on A. stephensi (feeding as a function of dose) turned out to be 160000 nM. Moreover, the affinity in experiment [1] is on record as under 1 nM.

What is called inhibition is the percentage by which the read-out fell short of the control. On to `Cc1ccc(C(=O)Nc2ccc(S(=O)(=O)O)c3cc(S(=O)(=O)O)cc(S(=O)(=O)O)c23)cc1NC(=O)c1cccc(NC(=O)Nc2cccc(C(=O)Nc3cc(C(=O)Nc4ccc(S(=O)(=O)O)c5cc(S(=O)(=O)O)cc(S(=O)(=O)O)c45)ccc3C)c2)c1` [Suramin], for which the “% Fed females (mean ± s.e.m.)” value in the experiment with A. stephensi (80 μM, feeding solution with 160 μM ATP) amounted to 30.04 ± 7.75%. In addition, the inhibition at 80 µM in the experiment on A. stephensi (Anopheles stephensi, 80 μM, Abbott's formula) turned out to be 58.8%. Moreover, the figures for the “Fluid intake, Median (mg)” value in the experiment with Ixodes ricinus (TFS + 500 μM) and in the experiment with Amblyomma hebraeum (TFS + 500 μM) were 1.9 mg/h and 4.5 mg/h, respectively.

One may read the Kd as the concentration at which binding is half-saturated. In the case of `O=C(O)c1cc(C(=O)O)c(C(=O)N(Cc2cccc(Oc3ccccc3)c2)[C@H]2CCCc3ccccc32)cc1C(=O)O` [A-317491, 5-[(3-phenoxyphenyl)methyl-[(1S)-1,2,3,4-tetrahydronaphthalen-1-yl]carbamoyl]benzene-1,2,4-tricarboxylic acid], in the experiment with A. stephensi (0.08 μM, feeding solution with 160 μM ATP), the “% Fed females (mean ± s.e.m.)” value is recorded as 29.68 ± 7.14%. Moreover, the inhibition at 0.08 µM with A. stephensi (Anopheles stephensi, 0.08 μM, Abbott's formula) worked out at 59.3%. Further, the “effect on feeding on solution containing ATP, in words” value in the experiment with A. stephensi and with Ixodes ricinus (doses as in Table 9) was “inhibited feeding” throughout. For the same molecule, the “Fluid intake, Median (mg)” value turned out to be 1.5 mg/h in the experiment with Ixodes ricinus (TFS + 1 μM) and 6.7 mg/h in the experiment with Amblyomma hebraeum (TFS + 1 μM). Also, the Kd in experiment [1] (Jarvis et al., 2002) was 0.9 nM.

As for `Cc1nc(C)c(C)nc1C` [TMP, 2,3,5,6-tetramethylpyrazine], the “% Fed females (mean ± s.e.m.)” value in the experiment on A. stephensi (0.8 μM, feeding solution with 160 μM ATP) amounted to 26.67 ± 2.98%. In addition, the inhibition at 0.8 µM in the experiment on A. stephensi (Anopheles stephensi, 0.8 μM, Abbott's formula) was 63.5%. Further, the “effect on feeding on solution containing ATP, in words” value in the experiment on A. stephensi is on record as “inhibited feeding”.

The record behind these values is US20250057791A1, “PROTECTION AGAINST ARTHROPOD PARASITES WITH PURINERGIC RECEPTOR (OPR) ANTAGONISTS” (priority 2021, published 2025).
